We go through four molecules from publication PMC10913051, “Bacterial Lactonases ZenA with Noncanonical Structural Features Hydrolyze the Mycotoxin Zearalenone” (ACS Catalysis, 2024).

Data set [1] has as its target T1, ZenARe.
T1 construct: gene zenA; C-terminal 6xHis-tag
The data set is described as follows: X-ray crystal structure (cocrystallized with ZEN, […] Å); stopped-flow tryptophan fluorescence of product binding ([…] °C, KP,net). The arrangement: species or system Rhodococcus erythropolis.

In the next data set the target is T2, ZenAScfl H286Y (Streptomyces coelicoflavus, UniProt A0A6N9UBA7, H286Y).
T2 construct: gene G3I46_00910; C-terminal 6xHis-tag
T2 sequence (A0A6N9UBA7 entry or part of it H286Y): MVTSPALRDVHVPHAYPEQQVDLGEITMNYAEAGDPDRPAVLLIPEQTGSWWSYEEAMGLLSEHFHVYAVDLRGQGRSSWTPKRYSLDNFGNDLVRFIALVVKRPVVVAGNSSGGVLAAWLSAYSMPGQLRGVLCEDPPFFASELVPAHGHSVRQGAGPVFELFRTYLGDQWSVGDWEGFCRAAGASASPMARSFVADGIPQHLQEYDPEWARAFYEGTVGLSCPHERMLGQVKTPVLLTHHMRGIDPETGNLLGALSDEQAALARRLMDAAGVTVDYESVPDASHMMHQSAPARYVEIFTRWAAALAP
The data set is described as follows: X-ray crystal structure, cocrystallized with […] ZEN, […] Å. The format is binding.

For data set [2], the target named is T1, ZenARe. The data set can be described thus: stopped-flow tryptophan fluorescence ([…] °C, net dissociation constant of two-step binding); steady-state KM […]. The arrangement: species or system Rhodococcus erythropolis.
Data set [3] concerns the molecule itself. The data set can be described thus: SEC-MALS; size exclusion chromatography and multiangle light scattering of the 6xHis-tagged enzyme; conditions in the Supporting Information.

Broadly, the Kd is the constant that tells how readily two partners part at equilibrium. A high value points to a looser complex. `C[C@H](O)CCCC(=O)CCC/C=C/c1cc(O)cc(O)c1C(=O)O` [HZEN, (S,E)-2,4-dihydroxy-6-(10-hydroxy-6-oxoundec-1-en-1-yl)benzoic acid]: the Kd on ZenARe [1] was 10 ± 1 µM. Also, the “X-ray crystal structure, cocrystallized with 5 mM ZEN, 1.53 Å” value on ZenAScfl H286Y was “a subsequently calculated Polder map revealed a better fit of product HZEN in the active site”.

On to `C[C@H]1CCCC(=O)CCC/C=C/c2cc(O)cc(O)c2C(=O)O1` [ZEN, (S,E)-14,16-dihydroxy-3-methyl-3,4,5,6,9,10-hexahydro-1H-benzo[c][1]oxacyclotetradecine-1,7(8H)-dione], for which, on ZenARe [2], binding was characterised by a dissociation constant (Kd) of 0.21 ± 0.04 µM.

B1: ZEN lactonase ZenARe of Rhodococcus erythropolis PFA D8-1 (enzyme)
chain: MAEEGTRSEAADAATQARQLPDSRNIFVSHRFPERQVDLGEVVMNFAEAGSPDNPALLLLPEQTGSWWSYEPVMGLLAENFHVFAVDIRGQGRSTWTPRRYSLDNFGNDLVRFIALVIKRPVVVAGNSSGGLLAAWLSAYAMPGQIRAALCEDAPFFASELVPAYGHSVLQAAGPAFELYRDFLGDQWSIGDWKGFVEAAKASPAKAMQLFPTPDEAPQNLKEYDPEWGRAFFEGTVALHCPHDRMLSQVKTPILITHHARTIDPETGELLGALSDLQAEHAQDIIRSAGVRVDYQSHPDALHMMHLFDPARYAEILTSWSATLPAND
Usually stoichiometry N stands for a count of units in the complex or per binding partner. B1: in data set [3], the “stoichiometry N” value was 2.

B2: ZEN lactonase ZenA_(Scfl) of Streptomyces coelicoflavus (enzyme)
chain: MVTSPALRDVHVPHAYPEQQVDLGEITMNYAEAGDPDRPAVLLIPEQTGSWWSYEEAMGLLSEHFHVYAVDLRGQGRSSWTPKRYSLDNFGNDLVRFIALVVKRPVVVAGNSSGGVLAAWLSAYSMPGQLRGVLCEDPPFFASELVPAHGHSVRQGAGPVFELFRTYLGDQWSVGDWEGFCRAAGASASPMARSFVADGIPQHLQEYDPEWARVFYEGTVGLSCPHERMLGQVKTPVLLTHHMRGIDPETGNLLGALSDEQALRARRLMDSAGVTVDYESVPDASHMMHQSAPARYVEIFTRWAAALAP
B2: the “stoichiometry N” value in data set [3] is 4.
